Measured values taken from patent publication US9260504B2, “N- and C-terminal substituted antagonistic analogs of GH-RH” (University of Miami, priority 2008, dated 2016).

Legend:
Format in all cases: in vivo
[1] = test system: NCI-N87 human gastric cancer; assay: NCI-N87 human gastric cancer xenografts in nude mice; details: 10 μg/day s.c.
Method: NCI-N87 cancers were transplanted s.c. into both flank areas of 30 female nude mice. The mice were randomly assigned into 4 experimental groups with 6 to 9 animals in each group and received single daily injections for 77 days as follows: 1. Control (vehicle solution); 2. JMR-132 (10 μg/day s.c.); 3. Peptide 1109 (10 μg/day s.c.); 4. Peptide 11479 (10 μg/day s.c.). Tumor volumes were measured once a week. The experiment was ended on day 77 by sacrificing the mice under Isoflurane anesthesia. Resulting tumors were cleaned, weighed, and snap-frozen until further analyses. Statistical analyses of the measurement results were done by two-tailed t-test, p<0.05 being considered significant. Data are presented as the means±S.E.

[2] = test system: PC-3 human hormone-independent prostate cancer; assay: PC-3 human prostate cancer xenografts in nude mice, Experiment 4; details: 10 μg/day s.c.
Method: (§1) Male nude mice were implanted s.c. with 3 mm^3 pieces of PC-3 human hormone-independent prostate cancer tissue on both flanks. When tumors reached a volume of approximately 50 mm^3, the mice were divided into 12 experimental groups with 8 to 10 animals in each group and received single daily injections for 28 days as follows: 1. Control (vehicle solution); 2. JMR-132 (10 μg/day s.c.); 3. Peptide 11113 (2 μg/day s.c.); 4. Peptide 11119 (2 μg/day s.c.); 5. Peptide 11209 (2 μg/day s.c.); 6. Peptide 11313 (2 μg/day s.c.); 7. Peptide 11408 (2 μg/day s.c.); 8. Peptide 11435 (2 μg/day s.c.); 9. Peptide 11457 (2 μg/day s.c.); 10. Peptide 11459 (2 μg/day s.c.); 11. Peptide 11469 (2 μg/day s.c.); 12. Peptide 11491 (2 μg/day s.c.).
(§2) Tumor volumes were measured once a week. The experiment was ended on day 28 by sacrificing the mice under Isoflurane anesthesia. Resulting tumors were cleaned, weighed, and snap-frozen until further analyses. Statistical analyses of the measurement results were done by two-tailed t-test, p<0.05 being considered significant.
All experimental details of Experiment 4 are the same as for Experiment 3, with the following difference. When tumors reached a volume of approximately 50 mm^3, the mice were divided into 11 experimental groups with 8 to 10 animals in each group and received single daily injections for 46 days as follows: 1. Control (vehicle solution); 2. JMR-132 (10 μg/day s.c.); 3. Peptide 11123 (2 μg/day s.c.); 4. Peptide 11125 (2 μg/day s.c.); 5. Peptide 11213 (2 μg/day s.c.); 6. Peptide 11433 (2 μg/day s.c.); 7. Peptide 11473 (2 μg/day s.c.); 8. Peptide 11485 (2 μg/day s.c.); 9. Peptide 11497 (2 μg/day s.c.); 10. Peptide 11499 (2 μg/day s.c.); 11. Peptide 11521 (2 μg/day s.c.). Tumor volumes were measured once a week. The experiment was ended on day 46 by sacrificing the mice under Isoflurane anesthesia. Resulting tumors were cleaned, weighed, and snap-frozen until further analyses. Statistical analyses of the measurement results were done by two-tailed t-test, p<0.05 being considered significant.

[3] = test system: PC-3 human hormone-independent prostate cancer; assay: PC-3 human prostate cancer xenografts in nude mice, Experiment 3; details: 10 μg/day s.c., 28 days
Method: as §1, §2

In the case of “[PhAc^0-Tyr^1, D-Arg^2, Cpa^6, Ala^8, Har^9, Tyr(Me)^10, His^11, Abu^15, His^20, Nle^27, D-Arg^28, Har^29]hGH-RH(1-29)NH2 [JMR-132, reference compound]”, the “Effect on the growth of NCI-N87 cancers” value ([1]; 77 days) is reported as “not effective”, the “Number of regressing tumors” value ([1]; 77 days) is reported as 2 and the “Tumor growth after 77 days (%)” value ([1]; 77 days, means±S.E.) is reported as 409 ± 78%. The “Tumor weights” value ([1]; day 77, means±S.E.) was 407 ± 175 mg, the “Tumor doubling time” value ([1]; calculated without the regressing tumors) was 40.8 ± 5.9 days and the “Tumor growth after 28 days (%)” value [2] was 1004%. The “Tumor growth after 46 days (%)” value [2] was 1848%, the “Inhibition (%)” value ([2]; after 28 days) was 26.62% and the “Inhibition (%)” value ([2]; after 46 days) was 44.52%. For the same substance, the “Tumor growth inhibition after 4 weeks (%)” value [3] was 28.11%.
